In experiment [1] the target is T1, human vitronectin receptor (VnR) αvβ3 (Homo sapiens, UniProt P05106+P06756).
T1 construct: Human vitronectin receptor was obtained from the human placenta according to the method of Pytela et al; from tissue; host or cells: human placenta
The experiment in a line: Kistrin binding assay (αvβ3 ELISA test, K/VnR). To be noted: inhibition of binding of kistrin to human vitronectin receptor. The source says: The inhibition of the binding of kistrin to human vitronectin receptor (VnR) described below is a test method by which the antagonistic action of the compounds of the invention on the vitronectin receptor αvβ3 can be determined (αvβ3 ELISA Test; the test method is abbreviated as “K/VnR” in the listing of the test results).
Kistrin was purified according to the methods of Dennis et al., as described in Proc. Natl. Acad. Sci. USA 87 (1989) 2471 and Proteins: Structure, Function and Genetics 15(1993)312.
Purification of Human Vitronectin Receptor (αvβ3)
Human vitronectin receptor was obtained from the human placenta according to the method of Pytela et al., Methods Enzymol. 144 (1987) 475. Human vitronectin receptor αvβ3 can also be obtained from some cell lines (for example from 293 cells, a human embryonic kidney cell line) which are cotransfected with DNA sequences for both subunits αv and β3 of the vitronectin receptor. The subunits were extracted with octyl glycoside and then chromatographed through concanavalin A, heparin-Sepharose and S-300.
Murine monoclonal antibodies which are specific for the β3 subunits of the vitronectin receptor, were prepared according to the method of Newman et al., Blood (1985) 227, or by a similar process. The rabbit Fab 2 anti-mouse Fc conjugate to horseradish peroxidase (anti-mouse Fc HRP) was obtained from Pel Freeze (Catalog No. 715 305-1).
The ability of substances to inhibit the binding of kistrin to the vitronectin receptor can be determined using an ELISA test. For this purpose, Nunc 96-well microtiter plates were coated with a solution of kistrin (0.002 mg/ml) according to the method of Dennis et al., as described in Proteins: Structure, Function and Genetics 15 (1993) 312. The plates were then washed twice with PBS/0.05% Tween-20 and blocked by incubating (60 min) with bovine serum albumin (BSA, 0.5%, RIA grade or better) in buffer solution (Tris-HCl (50 mM), NaCl (100 mM), MgCl2 (1 mM), CaCl2 (1 mM), MnCl2 (1 mM), pH 7). Solutions of known inhibitors and of the test substances were prepared in concentrations from 2×10^−12 to 2×10^−6 mol/l in assay buffer (BSA (0.5%, RIA grade or better); Tris-HCl (50 mM), NaCl (100 mM), MgCl2 (1 mM), CaCl2 (1 mM), MnCl2 (1 mM), pH 7). The blocked plates were emptied, and in each case 0.025 ml of this solution which contained a defined concentration (2×10^−12 to 2×10^−6 mol/l) either of a known inhibitor or of a test substance, were added to each well. 0.025 ml of a solution of the vitronectin receptor in assay buffer (0.03 mg/ml) is pipetted into each well of the plate and the plate was incubated at room temperature for 60-180 min on a shaker. In the meantime, a solution (6 ml/plate) of a murine monoclonal antibody specific for the β3 subunit of the vitronectin receptor was prepared in assay buffer (0.0015 mg/ml). A second rabbit antibody (0.001 ml of stock solution/6 ml of the murine monoclonal anti-β3 antibody solution) which is an anti-mouse Fc HRP antibody conjugate was added to this solution, and this mixture of murine anti-β3 antibody and rabbit anti-mouse Fc HRP antibody conjugate was incubated during the time of the receptor-inhibitor incubation. The test plates were washed four times with PBS solution which contains 0.05% Tween-20, and in each case 0.05 ml/well of the antibody mixture was pipetted into each well of the plate and incubated for 60-180 min. The plate was washed four times with PBS/0.05% Tween-20 and then developed with 0.05 ml/well of a PBS solution which contained 0.67 mg/ml of o-phenylenediamine and 0.012% of H2O2. Alternatively to this, o-phenylenediamine can be employed in a buffer (pH 5) which contains Na3PO4 and citric acid. The color development was stopped using 1 N H2SO4 (0.05 ml/well). The absorption for each well was measured at 492-405 nm and the data were evaluated by standard methods.
Background: An ELISA detects its analyte on a solid surface through an enzyme-linked reagent.

For experiment [2], the target named is 293 cells cotransfected with αv and β3 subunits of the vitronectin receptor αvβ3, binding to human vitronectin (Vn) (Homo sapiens, UniProt P05106+P06756). The experiment in a line: Vitronectin/293 cell test (inhibition of binding of 293 cells to human vitronectin). Type of experiment: cell-based. The conditions noted are these: inhibition of binding of αvβ3-expressing 293 cells to human vitronectin. As to the method: 2) Vitronectin/293 Cell Test
293 cells cotransfected with αv and β3 subunits of the vitronectin receptor αvβ3, binding to human vitronectin (Vn), sequence (P05106 whole entry): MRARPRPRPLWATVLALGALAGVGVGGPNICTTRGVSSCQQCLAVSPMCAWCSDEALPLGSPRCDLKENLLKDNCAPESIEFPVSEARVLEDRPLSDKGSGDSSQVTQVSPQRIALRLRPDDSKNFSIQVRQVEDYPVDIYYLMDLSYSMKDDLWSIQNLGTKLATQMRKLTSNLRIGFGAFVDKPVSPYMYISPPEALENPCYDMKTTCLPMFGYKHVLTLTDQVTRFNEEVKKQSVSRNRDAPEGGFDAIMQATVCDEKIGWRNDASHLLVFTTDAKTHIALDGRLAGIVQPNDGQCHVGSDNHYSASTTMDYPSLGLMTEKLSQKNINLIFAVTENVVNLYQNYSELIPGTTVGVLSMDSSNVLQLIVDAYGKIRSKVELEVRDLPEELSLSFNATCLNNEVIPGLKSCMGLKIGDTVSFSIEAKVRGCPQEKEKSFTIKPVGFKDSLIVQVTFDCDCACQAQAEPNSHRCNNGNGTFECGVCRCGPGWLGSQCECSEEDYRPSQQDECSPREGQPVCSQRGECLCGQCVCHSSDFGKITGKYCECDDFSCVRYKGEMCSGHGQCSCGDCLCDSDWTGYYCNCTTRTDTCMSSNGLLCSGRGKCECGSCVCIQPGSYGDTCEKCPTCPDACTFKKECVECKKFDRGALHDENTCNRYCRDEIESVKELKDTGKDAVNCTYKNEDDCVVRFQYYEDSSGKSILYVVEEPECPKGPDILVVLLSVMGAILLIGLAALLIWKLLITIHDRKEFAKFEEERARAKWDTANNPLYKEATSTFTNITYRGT
293 cells cotransfected with αv and β3 subunits of the vitronectin receptor αvβ3, binding to human vitronectin (Vn), sequence (P06756 whole entry): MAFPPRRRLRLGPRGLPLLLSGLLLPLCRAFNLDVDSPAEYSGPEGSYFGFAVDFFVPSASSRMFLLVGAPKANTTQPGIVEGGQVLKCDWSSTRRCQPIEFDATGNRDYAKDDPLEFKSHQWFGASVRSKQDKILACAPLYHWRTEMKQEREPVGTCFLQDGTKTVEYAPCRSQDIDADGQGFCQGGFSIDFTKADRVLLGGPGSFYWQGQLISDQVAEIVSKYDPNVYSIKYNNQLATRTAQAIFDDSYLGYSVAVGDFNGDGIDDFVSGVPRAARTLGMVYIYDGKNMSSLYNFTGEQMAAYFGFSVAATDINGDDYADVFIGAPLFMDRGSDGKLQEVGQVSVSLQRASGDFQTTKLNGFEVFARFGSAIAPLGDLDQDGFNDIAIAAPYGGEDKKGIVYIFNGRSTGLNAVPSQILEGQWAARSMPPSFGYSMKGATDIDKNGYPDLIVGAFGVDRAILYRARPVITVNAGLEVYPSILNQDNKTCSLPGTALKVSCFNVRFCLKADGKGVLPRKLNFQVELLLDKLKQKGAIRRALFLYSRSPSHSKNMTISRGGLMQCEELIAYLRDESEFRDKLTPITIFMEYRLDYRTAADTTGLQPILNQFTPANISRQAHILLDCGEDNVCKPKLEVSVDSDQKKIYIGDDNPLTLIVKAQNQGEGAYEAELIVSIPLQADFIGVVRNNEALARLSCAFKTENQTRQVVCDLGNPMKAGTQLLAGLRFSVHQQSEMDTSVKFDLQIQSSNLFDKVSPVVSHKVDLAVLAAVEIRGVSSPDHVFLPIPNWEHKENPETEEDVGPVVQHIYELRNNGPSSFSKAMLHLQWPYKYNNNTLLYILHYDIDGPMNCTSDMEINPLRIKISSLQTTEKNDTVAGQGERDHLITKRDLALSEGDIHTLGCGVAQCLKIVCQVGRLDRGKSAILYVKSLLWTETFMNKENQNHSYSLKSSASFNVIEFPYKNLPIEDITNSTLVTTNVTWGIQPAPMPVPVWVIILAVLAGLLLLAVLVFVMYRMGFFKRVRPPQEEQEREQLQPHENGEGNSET
In this test the inhibition of binding of 293 cells to human vitronectin (Vn) by the compounds of the invention is determined (the test method is abbreviated as “Vn/293 cell test” in the listing of the test results).
Purification of Human Vitronectin
Human vitronectin was isolated from human plasma and purified by affinity chromatography according to the method of Yatohgo et al., Cell Structure and Function 23 (1988) 281.
293 cells, a human embryonic kidney cell line, which were cotransfected with DNA sequences for the αv and β3 subunits of the vitronectin receptor αvβ3, were selected for a high rate of expression (>500,000 αvβ3 receptors/cell) according to the FACS method. The selected cells were cultured and sorted again by means of FACS in order to obtain a stable cell line (15 D) with expression rates >1,000,000 copies of αvβ3 per cell.
A Linbro 96-well tissue culture plate with a flat bottom was coated overnight at 4° C. with human vitronectin (0.01 mg/ml, 0.05 ml/well) in phosphate-buffered saline solution (PBS) and then blocked with 0.5% strength BSA (bovine serum albumin). Solutions of the test substances from 10^−10 mol/l to 2×10^−3 mol/l in glucose-containing DMEM medium were prepared and 0.05 ml/well of the solution were added to the plate in each case. The cells which expressed high levels of αvβ3 (for example 15 D) were suspended in glucose-containing DMEM medium and the suspension was adjusted to a content of 25,000 cells/0.05 ml of medium. 0.05 ml of this cell suspension was added to each well and the plate was incubated at 37° C. for 90 min. The plate was washed 3 times with warm PBS in order to remove unbound cells. The bound cells were lyzed in citrate buffer (25 mM, pH 5.0) which contained 0.25% Triton X-100. The hexoseamidase substrate p-nitrophenyl-N-acetyl-β-D-glucosaminide was then added and the plate was incubated at 37° C. for 90 min. The reaction was stopped with a glycine (50 mM)/EDTA (5 mM) buffer (pH 10.4) and the absorption of each well was measured at 405 to 650 nm. The data were analyzed according to standard methods.

The structures appear in SMILES notation.

T1 sequence (P06756 31-889 limits assumed): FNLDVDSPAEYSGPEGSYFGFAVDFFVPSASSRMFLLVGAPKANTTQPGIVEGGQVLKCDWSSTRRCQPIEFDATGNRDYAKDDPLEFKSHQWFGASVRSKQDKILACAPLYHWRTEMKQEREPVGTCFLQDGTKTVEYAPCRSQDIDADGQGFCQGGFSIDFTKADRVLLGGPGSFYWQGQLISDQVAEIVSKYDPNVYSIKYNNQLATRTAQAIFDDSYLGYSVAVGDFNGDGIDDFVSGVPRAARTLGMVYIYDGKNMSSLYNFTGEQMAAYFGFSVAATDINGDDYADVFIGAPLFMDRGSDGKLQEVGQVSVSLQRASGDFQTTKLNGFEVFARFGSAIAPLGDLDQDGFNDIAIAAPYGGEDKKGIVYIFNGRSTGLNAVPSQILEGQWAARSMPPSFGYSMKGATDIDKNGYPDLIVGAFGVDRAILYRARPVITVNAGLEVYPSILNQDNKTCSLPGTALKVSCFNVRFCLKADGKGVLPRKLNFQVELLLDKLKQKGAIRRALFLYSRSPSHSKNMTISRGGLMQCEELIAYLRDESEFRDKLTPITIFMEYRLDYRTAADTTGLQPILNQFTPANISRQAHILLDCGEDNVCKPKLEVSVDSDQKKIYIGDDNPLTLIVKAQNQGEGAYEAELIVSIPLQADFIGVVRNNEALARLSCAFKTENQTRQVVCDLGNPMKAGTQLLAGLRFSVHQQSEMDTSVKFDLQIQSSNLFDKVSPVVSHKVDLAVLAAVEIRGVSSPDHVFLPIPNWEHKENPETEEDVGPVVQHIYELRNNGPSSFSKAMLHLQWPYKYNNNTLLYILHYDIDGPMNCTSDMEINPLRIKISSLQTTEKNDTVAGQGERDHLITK
T1 sequence (P06756 891-1048 partner limits assumed): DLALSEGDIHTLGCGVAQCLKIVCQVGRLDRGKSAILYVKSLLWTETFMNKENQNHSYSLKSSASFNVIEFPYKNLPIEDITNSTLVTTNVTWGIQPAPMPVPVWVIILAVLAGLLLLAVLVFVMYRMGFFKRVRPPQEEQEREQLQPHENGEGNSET
T1 sequence (P05106 27-788): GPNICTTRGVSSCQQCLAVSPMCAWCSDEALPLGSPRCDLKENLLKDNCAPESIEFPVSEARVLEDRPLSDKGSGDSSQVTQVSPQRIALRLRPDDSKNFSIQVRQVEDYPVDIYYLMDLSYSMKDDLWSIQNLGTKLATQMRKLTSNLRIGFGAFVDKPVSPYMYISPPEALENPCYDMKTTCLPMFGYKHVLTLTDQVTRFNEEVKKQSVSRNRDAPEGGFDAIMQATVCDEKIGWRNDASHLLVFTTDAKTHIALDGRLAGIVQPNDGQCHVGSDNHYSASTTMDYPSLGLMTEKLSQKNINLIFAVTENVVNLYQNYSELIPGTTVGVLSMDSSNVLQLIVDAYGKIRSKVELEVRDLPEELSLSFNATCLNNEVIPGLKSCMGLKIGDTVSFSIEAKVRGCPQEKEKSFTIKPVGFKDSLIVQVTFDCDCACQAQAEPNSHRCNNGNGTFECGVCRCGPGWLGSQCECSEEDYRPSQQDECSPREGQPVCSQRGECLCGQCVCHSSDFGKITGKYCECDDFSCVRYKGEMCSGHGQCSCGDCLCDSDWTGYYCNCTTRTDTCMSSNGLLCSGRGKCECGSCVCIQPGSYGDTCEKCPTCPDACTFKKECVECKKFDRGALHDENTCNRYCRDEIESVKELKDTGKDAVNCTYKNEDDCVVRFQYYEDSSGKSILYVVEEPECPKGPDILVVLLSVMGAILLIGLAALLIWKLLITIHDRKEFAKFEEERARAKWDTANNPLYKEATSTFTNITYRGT

Regarding `O=C(CCCCc1ccc(C[C@H](NC(=O)OCC23CC4CC(CC(C4)C2)C3)C(=O)O)s1)NC1=NCCCN1` [Example 12, (2S)-2-(Adamantan-1-ylmethoxycarbonylamino)-3-(5-(4-(1,4,5,6-tetrahydropyrimidin-2-ylcarbamoyl)-butyl)-thiophen-2-yl)-propionic acid], the IC50 (as a rule, the concentration at which inhibition is half-maximal) in experiment [1] worked out at 23 nM; in experiment [2], 220 nM.

On to `O=C(CCCCc1ccc(C[C@H](NS(=O)(=O)c2ccc3ccccc3c2)C(=O)O)s1)NC1=NCCCN1` [Example 2, (2S)-2-(Naphthalene-2-sulfonylamino)-3-(5-(4-(1,4,5,6-tetrahydropyrimidin-2-ylcarbamoyl)-butyl)-thiophen-2-yl)-propionic acid], for which the IC50 in experiment [1] turned out to be 15 nM; in experiment [2] it was 330 nM.

Consider `CCCCS(=O)(=O)N[C@@H](Cc1ccc(CCCCC(=O)NC2=NCCCN2)s1)C(=O)O` [Example 9, (2S)-2-(Butane-1-sulfonylamino)-3-(5-(4-(1,4,5,6-tetrahydropyrimidin-2-ylcarbamoyl)-butyl)-thiopen-2-yl)-propionic acid], for which the IC50 in experiment [1] is 46 nM; in experiment [2], 1800 nM.

As to `O=C(CCCCc1ccc(C[C@H](NS(=O)(=O)c2cccc3ccccc23)C(=O)O)s1)NC1=NCCCN1` [Example 1, (2S)-2-(Naphthalene-1-sulfonylamino)-3-(5-(4-(1,4,5,6-tetrahydropyrimidin-2-ylcarbamoyl)-butyl)-thiophen-2-yl)-propionic Acid], the IC50 in experiment [1] is 23 nM; in experiment [2] it was 420 nM.

Take `O=C(CCCCc1ccc(C[C@H](NS(=O)(=O)c2cccc(Cl)c2)C(=O)O)s1)NC1=NCCCN1` [Example 5, (2S)-2-(3-Chlorobenzenesulfonylamino)-3-(5-(4-(1,4,5,6-tetrahydropyrimidin-2-ylcarbamoyl)-butyl)-thiophen-2-yl)-propionic acid]: the IC50 in experiment [1] is 15 nM; in experiment [2] it was 420 nM.

`O=C(CCCCc1ccc(C[C@H](NS(=O)(=O)c2ccccc2)C(=O)O)s1)NC1=NCCCN1` [Example 3, (2S)-2-Benzenesulfonylamino-3-(5-(4-(1,4,5,6-tetrahydropyrimidin-2-ylcarbamoyl)-butyl)-thiophen-2-yl)-propionic acid]: the half-maximal inhibitory concentration (IC50) in experiment [1] is 9.5 nM; in experiment [2] it was 1000 nM.

Regarding `O=C(CC/C=C/c1ccc(C[C@H](NC(=O)OCc2ccccc2)C(=O)O)s1)NC1=NCCCN1` [Example 15, (2S)-2-Benzyloxycarbonylamino-3-(5-(4-(1,4,5,6-tetrahydropyrimidin-2-ylcarbamoyl)-but-1-enyl)-thiophen-2-yl)-propionic acid], the IC50 was 35 nM in experiment [1] and 580 nM in experiment [2].

Consider `O=C(CCCCc1ccc(C[C@H](NC(=O)OCc2ccccc2)C(=O)O)s1)NC1=NCCCN1` [Example 11, (2S)-2-Benzyloxycarbonylamino-3-(5-(4-(1,4,5,6-tetrahydropyrimidin-2-ylcarbamoyl)-butyl)-thiophen-2-yl)-propionic acid], for which the half-maximal inhibitory concentration (IC50) in experiment [1] came out at 9 nM; in experiment [2] it was 110 nM.

In the case of `O=C(CCC/C=C/c1ccc(C[C@H](NC(=O)OCc2ccccc2)C(=O)O)s1)NC1=NCCCN1` [Example 14, (2S)-2-Benzyloxycarbonylamino-3-(5-(5-(1,4,5,6-tetrahydropyrimidin-2-ylcarbamoyl)-pent-1-enyl)-thiophen-2-yl)-propionic acid], the IC50 in experiment [1] stood at 40 nM; in experiment [2], 690 nM.

`CC(C)(C)c1ccc(S(=O)(=O)N[C@@H](Cc2ccc(CCCCC(=O)NC3=NCCCN3)s2)C(=O)O)cc1` [Example 10, (2S)-2-(4-tert-Butylbenzenesulfonylamino)-3-(5-(4-(1,4,5,6-tetrahydropyrimidin-2-ylcarbamoyl)-butyl)-thiophen-2-yl)-propionic acid]: the IC50 in experiment [1] worked out at 95 nM; in experiment [2] it was 6900 nM.

Turning to `CCCS(=O)(=O)N[C@@H](Cc1ccc(CCCCC(=O)NC2=NCCCN2)s1)C(=O)O` [Example 8, (2S)-2-(Propane-1-sulfonylamino)-3-(5-(4-(1,4,5,6-tetrahydropyrimidin-2-ylcarbamoyl)-butyl)-thiophen-2-yl)-propionic acid], the IC50 in experiment [1] was 60 nM; in experiment [2], 1000 nM.

As for `O=C(CCCCc1ccc(C[C@H](NS(=O)(=O)c2ccc(Cl)cc2)C(=O)O)s1)NC1=NCCCN1` [Example 4, (2S)-2-(4-Chlorobenzenesulfonylamino)-3-(5-(4-(1,4,5,6-tetrahydropyrimidin-2-ylcarbamoyl)-butyl)-thiophen-2-yl)-propionic acid], the half-maximal inhibitory concentration (IC50) in experiment [1] was determined as 12 nM; in experiment [2], 850 nM.

In the case of `O=C(CCCCc1ccc(C[C@H](NS(=O)(=O)CC(F)(F)F)C(=O)O)s1)NC1=NCCCN1` [Example 7, (2S)-3-(5-(4-(1,4,5,6-Tetrahydropyrimidin-2-ylcarbamoyl)-butyl)-thiophen-2-yl)-2-(2,2,2-trifluoroethanesulfonylamino)-propionic acid], the figures for the concentration for half-maximal inhibition (IC50) in experiment [1] and in experiment [2] were 11 nM and 400 nM, respectively.

Consider `O=C(CCCCCc1ccc(C[C@H](NC(=O)OCc2ccccc2)C(=O)O)s1)NC1=NCCCN1` [Example 13, (2S)-2-Benzyloxycarbonylamino-3-(5-(5-(1,4,5,6-tetrahydropyrimidin-2-ylcarbamoyl)-pentyl)-thiophen-2-yl)-propionic acid], for which the IC50 in experiment [1] was determined as 97 nM; in experiment [2] it was 210 nM.

As for `O=C(CCCCc1ccc(C[C@H](NS(=O)(=O)c2ccc(C(F)(F)F)cc2)C(=O)O)s1)NC1=NCCCN1` [Example 6, (2S)-3-(5-(4-(1,4,5,6-Tetrahydropyrimidin-2-ylcarbamoyl)-butyl)-thiophen-2-yl)-2-(4-trifluoromethylbenzenesulfonylamino)-propionic acid], the concentration for half-maximal inhibition (IC50) came out at 28 nM in experiment [1] and 2000 nM in experiment [2].

The values above are taken from US6762190B2, “Thienylalanine derivatives as inhibitors of cell adhesion” (Aventis Pharma S.A. Deutschland GmbH Genentech, Inc., priority 1999, dated 2004).
